Experiment in all cases: Kinase Inhibition Assay
The target of experiment [1] is Cyclin-dependent kinase 2 (Homo sapiens, UniProt P24941). An excerpt:
(§1) In vitro kinase inhibition assay.

In experiment [2] the target is Cyclin-dependent kinase 4 (Homo sapiens, UniProt P11802).
Description: as §1

Another experiment deals with G1/S-specific cyclin-D1 (Homo sapiens, UniProt P24385).
Description: as §1

The next experiment concerns the target G1/S-specific cyclin-E1 (Homo sapiens, UniProt P24864).
Description: as §1

The results in this text go back to BindingDB's records for doi:10.1016/j.chembiol.2004.03.022 (Cyclacel, 2004).

In general, IC50 refers to the concentration that gives 50% inhibition. High values mean lower potency, low ones higher potency.

The structures appear in SMILES notation. Where only a bound is given, the exact number is not on record here.

Sequence of G1/S-specific cyclin-E1 (P24864 whole entry): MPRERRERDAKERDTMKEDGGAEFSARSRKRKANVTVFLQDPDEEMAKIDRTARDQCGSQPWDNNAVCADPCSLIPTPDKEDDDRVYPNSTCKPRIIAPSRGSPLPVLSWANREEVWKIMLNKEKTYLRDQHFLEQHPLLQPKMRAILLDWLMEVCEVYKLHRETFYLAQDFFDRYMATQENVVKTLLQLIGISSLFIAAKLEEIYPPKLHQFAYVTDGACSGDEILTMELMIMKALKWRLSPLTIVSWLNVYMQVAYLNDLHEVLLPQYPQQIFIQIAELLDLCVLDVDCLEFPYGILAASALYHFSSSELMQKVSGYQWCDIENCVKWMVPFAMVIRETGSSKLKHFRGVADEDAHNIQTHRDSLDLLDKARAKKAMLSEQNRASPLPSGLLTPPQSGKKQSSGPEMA
Sequence of G1/S-specific cyclin-D1 (P24385 whole entry): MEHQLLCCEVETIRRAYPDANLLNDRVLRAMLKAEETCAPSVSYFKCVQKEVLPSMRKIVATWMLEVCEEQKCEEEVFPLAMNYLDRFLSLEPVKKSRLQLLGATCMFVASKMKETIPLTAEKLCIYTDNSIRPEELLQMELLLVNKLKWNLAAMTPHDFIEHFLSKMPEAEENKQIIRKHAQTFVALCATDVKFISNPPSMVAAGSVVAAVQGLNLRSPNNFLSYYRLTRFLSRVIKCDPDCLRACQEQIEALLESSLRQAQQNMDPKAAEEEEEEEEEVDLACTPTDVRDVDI
Sequence of Cyclin-dependent kinase 4 (P11802 whole entry): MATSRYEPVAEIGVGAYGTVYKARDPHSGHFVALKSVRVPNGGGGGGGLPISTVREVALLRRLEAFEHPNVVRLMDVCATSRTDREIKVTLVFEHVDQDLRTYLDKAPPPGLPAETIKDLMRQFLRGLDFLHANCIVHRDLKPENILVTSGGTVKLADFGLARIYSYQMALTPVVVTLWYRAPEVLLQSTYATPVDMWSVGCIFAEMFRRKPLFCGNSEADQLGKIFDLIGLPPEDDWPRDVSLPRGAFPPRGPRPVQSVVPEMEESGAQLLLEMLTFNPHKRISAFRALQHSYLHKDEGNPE

As for `O=C1c2ccccc2-[n+]2ccc3c([nH]c4ccccc43)c21`, the IC50 in experiment [1] was more than 50 µM; in experiment [2], 350 nM.

For the compound `Cc1nc(C)c(-c2ccnc(Nc3ccc(N)cc3)n2)s1` [Aminopyrimidine, 4], the IC50 was determined as 3800 nM on G1/S-specific cyclin-D1 and 230 nM against G1/S-specific cyclin-E1.

Regarding `COc1ccc(OC)c2c(=S)c3ccccc3[nH]c12` [NSC625987], the IC50 was more than 100 µM in experiment [1] and 200 nM in experiment [2].

Regarding `CNc1nc(C)c(-c2ccnc(Nc3cccc(CNC(C)=O)c3)n2)s1` [Aminopyrimidine, 3], the IC50 was 890 nM against G1/S-specific cyclin-D1 and 430 nM at G1/S-specific cyclin-E1.

The compound `CNc1nc(C)c(-c2ccnc(Nc3ccc(N4CCNCC4)cc3)n2)s1` [Aminopyrimidine, 10] yielded an IC50 on G1/S-specific cyclin-D1 of 7 nM.

Regarding `CCNc1nc(C)c(-c2ccnc(Nc3cccc(CN)c3)n2)s1` [Aminopyrimidine, 2], the IC50 on G1/S-specific cyclin-D1 was determined as 110 nM; on G1/S-specific cyclin-E1, 330 nM.

Consider `Cc1nc(C)c(-c2ccnc(Nc3ccc(N4CCOCC4)cc3)n2)s1` [Aminopyrimidine, 5], for which the figures for the IC50 against G1/S-specific cyclin-D1 and on G1/S-specific cyclin-E1 were 4000 nM and 2000 nM, respectively.

Consider `Cc1nc(C)c(-c2ccnc(Nc3ccc(N4CCNCC4)cc3)n2)s1` [Aminopyrimidine, 6], for which the IC50 against G1/S-specific cyclin-D1 amounted to 640 nM; on G1/S-specific cyclin-E1 it was 1100 nM.

Turning to `Cc1nc(C)c(-c2ccnc(Nc3ccc(N4CCN(C)CC4)cc3)n2)s1` [Aminopyrimidine, 7], the 50% inhibitory concentration (IC50) on G1/S-specific cyclin-D1 was 160 nM; on G1/S-specific cyclin-E1 it was 1020 nM.

Regarding `Cc1nc(C)c(-c2ccnc(Nc3ccc(N4CCN(CCO)CC4)cc3)n2)s1` [Aminopyrimidine, 8], the IC50 at G1/S-specific cyclin-D1 was found to be 430 nM; at G1/S-specific cyclin-E1 it was 2200 nM.

Consider `CNc1nc(C)c(-c2ccnc(Nc3cccc(CN)c3)n2)s1` [Aminopyrimidine, 1], for which the values for the IC50 on G1/S-specific cyclin-D1 and against G1/S-specific cyclin-E1 were 230 nM and 410 nM, respectively.

`Cc1nc(N)sc1-c1ccnc(Nc2ccc(N3CCOCC3)cc2)n1` [2-amino-4-methyl-1,3-thiazol-5-yl)-N-[4-(morpholin-4-yl)phenyl]pyrimidin-2-amine, 5]: half-maximal inhibition against G1/S-specific cyclin-D1 (IC50) was put at 2400 nM. This lies in the single-digit micromolar range.
